The results in this text go back to US20190008152A1, “PLANT DISEASE CONTROL COMPOSITION AND PLANT DISEASE CONTROL METHOD” (SUMITOMO CHEMICAL COMPANY, LIMITED, priority 2015, published 2019).

Test [1] concerns wheat rust fungus (Puccinia recondita). The test can be described thus: Test Example 4: foliar spray of flowable formulations on wheat, inoculation with wheat rust fungus, lesion area. The class given is in vivo, Puccinia recondita on wheat (cultivar. Shirogane). Particulars: single use. As for the experimental part: Five (5) parts of the present compound 1-3, 35 parts of a mixture of white carbon and ammonium polyoxyethylene alkyl ether sulfate (the weight ratio of 1:1) and 55 parts of water were mixed, and the mixture was then finely-ground by a wet grinding method to obtain a flowable formulation comprising the present compound 1-3. Separately, the flowable formulation comprising the present compound 2-1 was prepared according to the above-mentioned similar method except that the present compound 2-1 was used instead of the present compound 1-3 to form a flowable formulation comprising the present compound 2-1.
Each of the above-mentioned respective flowable formulations, and the flowable formulation comprising the present compound 1-3 and the present compound 2-1 that was prepared according to the above-mentioned Formulation Example 3 was diluted with water such that each concentration of the respective compounds in the dilution solutions was adjusted to that indicated in Table 6, to prepare the dilution solutions, respectively.
A plastic pot was filled with soil, and thereto wheat (cultivar. Shirogane) was seeded, and the plants were grown in a greenhouse for ten days. […]
From each of the lesion area of the treated group and the untreated group, respectively, the efficacy of the treated group was calculated by the below-mentioned Equation 2. […]

A further test deals with wheat leaf blight fungus. The test can be described thus: Test Example 3: growth of wheat leaf blight fungus in YBG medium, microtiter plate, absorbance at 550 nm. The class given is cell-based, Mycosphaerella graminicola. Particulars: single use, 18° C., six days. The protocol:
The present compound 1-3 or the present compound 2-1 was dissolved into dimethyl sulfoxide such that each concentration of the present compound 1-3 or the present compound 2-1 was adjusted to one hundred fifty times as much as the concentration indicated in the below-mentioned Table 5. The resultant agent solution was dispensed into a microtiter plate (with 96 wells) in 1 μl portion thereof per well. One hundred forty nine (149) μl of YBG medium (which was prepared by dissolving 10 g of yeast extract, 10 g of Bacto Peptone, and 20 mL of glycerol into 1 L of water, followed by sterilizing the medium) was dispensed into the wells to which the agent solution(s) was/were dispensed. The plate was cultivated at 18° C. for six days, thereby allowing wheat leaf blight fungus to undergo proliferation, and the absorbance at 550 nm of each well of the micro titer plate was then measured to examine a degree of growth of the wheat leaf blight fungus (hereinafter referred to as “treated group”).
Whereas, wheat leaf blight fungus was proliferated similarly to the case of the treated group except that dimethyl sulfoxide was used instead of the agent solution, and the degree of the growth was examined (hereinafter referred to as “untreated group”). The efficacy was calculated from the respective obtained degree of growth by the below-mentioned “Equation 1”.
Efficacy (%)=100×(X−Y)/X Equation 1 […]

`Cc1cccc(-n2nnn(C)c2=O)c1COc1ccn(-c2ccc(Cl)cc2)n1` [Present compound 1-3, 1-(2-{[1-(4-chlorophenyl)-1H-pyrazol-3-yl]oxymethyl}-3-methylphenyl)-4-methyl-1,4-dihydrotetrazol-5-one]: the “Efficacy (%)” value stood at 35% in test [1] (concentration 0.002 ppm), 70% in test [1] (concentration 0.01 ppm), 20% with wheat leaf blight fungus (concentration in medium 0.0001 ppm) and 37% in the test on wheat leaf blight fungus (concentration in medium 0.01 ppm).
